Test results reported in PMC6383929, “Design, antimicrobial activity and mechanism of action of Arg-rich ultra-short cationic lipopeptides” (PLoS ONE, 2019).
≈ marks a conversion by molar mass, not a printed value. Read-outs that look alike come from different tables or passages of the source. Where a SMILES comes first, the peptide text is derived from it. The star is where a group is joined. Myristoyl = CCCCCCCCCCCCCC(=O)*; Lauroyl = CCCCCCCCCCCC(=O)*; Decanoyl = CCCCCCCCCC(=O)*; Octanoyl = CCCCCCCC(=O)*; Hexanoyl = CCCCCC(=O)*

Columns and labels:
[1] = RP-HPLC retention time (hydrophobicity); format: physicochemical; conditions: stated to reliably reflect the hydrophobicity in aqueous solution, assessed and provided by GenScript
Procedure: GenScript (Piscataway, NJ, USA) carried out the custom synthesis of USCLs by using high efficient solid phase peptide synthesis. The fatty acid was conjugated to the N-terminus of the peptide using the same procedure followed to attach protected amino acids to the growing peptide chain for synthesis. The purity (>90%), sequence and molecular weight of USCLs were assessed and provided by GenScript using RP-HPLC and ESI-MS. USCLs were dissolved in sterile water or DMSO at 10 mg/mL, according to manufacturer's indications.

S. aureus ATCC 25923 = format: cell-based, Staphylococcus aureus
Text: (§1) Bacteria used in this study were Escherichia coli ATCC 25922 and O18K1H7, Staphylococcus aureus ATCC 25923 and ATCC 29213, Pseudomonas aeruginosa ATCC 27853, Staphylococcus epidermidis ATCC 12228, Enterococcus faecalis ATCC 29212, Bacillus subtilis DSM 4181, Listeria monocytogenes DSM 20600, Salmonella typhimurium ATCC 14028, Acinetobacter baumannii ATCC 19606 and 17978, Klebsiella pneumoniae ATCC 13883 and 700603, Stenotrophomonas maltophilia ATCC 13637 and Burkholderia cenocepacia J2315. In addition to reference strains, a clinical isolate of E. faecalis vancomycin-resistant (VREF, strain M), and three clinical isolates of S. aureus methicillin-resistant (MRSA, strains E, G and 11), kindly provided by Dr. Lucilla Dolzani, were used. All MRSA strains are resistant to GEN, IPM, OXA, PEN, CIP and CEF; the S. aureus E strain is also resistant to CLI and ERY. VREF strain is resistant to AMK, ATM, GEN, NET, PEN, TEC, TET, TOB and VAN.
(§2) For the assays, overnight bacterial cultures were diluted 1:30 in fresh Mueller-Hinton Broth (MHB, Difco) and incubated at 37°C with shaking for approximately 2h.
(§3) The antimicrobial activity of USCLs was determined by the Minimum Inhibitory Concentration (MIC) assay, according to the guidelines of CLSI (Clinical & Laboratory Standards Institute) and described in [30, 31]. Briefly, the assays were performed in 96-well microplates in appropriate broth (MHB or SAB). […] For bacteria, a mid-log phase bacterial suspension at 2.5 × 10^5 CFU/mL in MHB was used, and the microplates incubated at 37°C for 24h. The fungal suspension in SAB broth was used at a final concentration of 5 × 10^4 cells/mL. Microplates were then incubated at 30°C for 48h. The MIC value was taken as the lowest concentration of USCLs resulting in the complete inhibition of visible bacterial or fungal growth after appropriate incubation time. Results derive from at least three independent experiments carried out in duplicate.

E. coli ATCC 25922 = format: cell-based, Escherichia coli
Text: as §1, §2, §3

P. aeruginosa ATCC 27853 = format: cell-based, Pseudomonas aeruginosa
Text: as §1, §2, §3

[2] = tested on: K. pneumoniae ATCC 700603; format: cell-based, Klebsiella pneumoniae; conditions: ATCC 700603, 24 h
Text: as §1, §2, §3

K. pneumoniae ATCC 13883 = format: cell-based, Klebsiella pneumoniae; conditions: ATCC 13883, 24 h
Text: as §1, §2, §3

[3] = tested on: E. faecalis M (VREF clinical isolate); format: cell-based, Enterococcus faecalis; conditions: M (VREF clinical isolate, 24 h)
Text: as §1, §2, §3

E. faecalis ATCC 29212 = format: cell-based, Enterococcus faecalis; conditions: ATCC 29212, 24 h
Text: as §1, §2, §3

C. albicans ATCC 90029 = format: cell-based, Candida albicans; conditions: ATCC 90029, 48 h
Procedure: (§4) Fungal strains used were Candida albicans ATCC 90029 and SC5314. Fungi were grown on Sabouraud dextrose (SAB, Difco) agar plates at 30°C for 48h. The initial fungal inoculum was prepared by picking and suspending five colonies in 5 mL of sterile PBS.
as §3

C. albicans SC 5314 = format: cell-based, Candida albicans; conditions: SC 5314, 48 h
Procedure: as §4, §3

[4] = tested on: S. typhimurium ATCC 14028; format: cell-based, Salmonella typhimurium; conditions: ATCC 14028, 24 h
Text: as §1, §2, §3

[5] = tested on: S. aureus E (MRSA clinical isolate); format: cell-based, Staphylococcus aureus; conditions: E ( clinical isolate, 24 h)
Text: as §1, §2, §3

[6] = tested on: S. aureus 11 (MRSA clinical isolate); format: cell-based, Staphylococcus aureus; conditions: 11 ( clinical isolate, 24 h)
Text: as §1, §2, §3

[7] = tested on: S. aureus G (MRSA clinical isolate); format: cell-based, Staphylococcus aureus; conditions: G ( clinical isolate, 24 h)
Text: as §1, §2, §3

E. coli O18K1H7 = format: cell-based, Escherichia coli; conditions: O18K1H7, 24 h
Text: as §1, §2, §3

B. subtilis DSM 4181 = format: cell-based, Bacillus subtilis; conditions: DSM 4181, 24 h
Text: as §1, §2, §3

[8] = tested on: S. maltophilia ATCC 13637; format: cell-based, Stenotrophomonas maltophilia; conditions: ATCC 13637, 48 h
Text: as §1, §2
as §3, with “For bacteria, a mid-log phase bacterial suspension at 2.5 × 10^5 CFU/mL in MHB was used, and the microplates incubated at 37°C for 24h.” left out

B. cenocepacia J2315 = format: cell-based, Burkholderia cenocepacia; conditions: 48 h
Text: as §1, §2
as §3, with “For bacteria, a mid-log phase bacterial suspension at 2.5 × 10^5 CFU/mL in MHB was used, and the microplates incubated at 37°C for 24h.” left out

[9] = MHB, 2.5 × 10^5 CFU/mL, 24h at 37°C, at least three independent experiments in duplicate

Compound | Retention time [1] [min] | MIC (S. aureus ATCC 25923; ATCC 25923, 24 h) | MIC (E. coli ATCC 25922; ATCC 25922, 24 h) | MIC (P. aeruginosa ATCC 27853; ATCC 27853, 24 h) [µg/mL] | also measured
CCCCCC(=O)N[C@@H](CCCNC(=N)N)C(=O)N[C@@H](Cc1ccccc1)C(=O)N[C@@H](Cc1c[nH]c2ccccc12)C(=O)N[C@@H](CCCNC(=N)N)C(N)=O [Lp-F^Hex, Hex-RFWR-NH2] (Hexanoyl-RFWR-NH2) | 18.675 | – | – | – | MIC (S. aureus ATCC 25923; MHB, 2.5 × 10^5 CFU/mL, 24h at 37°C, at least three independent experiments in duplicate, two values when replicates differed by one well): >400 µg/mL; MIC (E. coli ATCC 25922; [9]): >400 µg/mL; MIC (P. aeruginosa ATCC 27853; [9]): >400 µg/mL
CCCCCCCCCCCC(=O)N[C@@H](CCCNC(=N)N)C(=O)N[C@@H](CO)C(=O)N[C@@H](Cc1c[nH]c2ccccc12)C(=O)N[C@@H](CCCNC(=N)N)C(N)=O [Lp-S, Lau-RSWR-NH2] (Lauroyl-RSWR-NH2) | 16.117 | 6.25 µg/mL (≈ 7.96 µM) | 25 µg/mL (≈ 31.8 µM) | 25 (≈ 31.8 µM) | –
CCCCCCCCCCCCCC(=O)N[C@@H](CCCNC(=N)N)C(=O)N[C@@H](Cc1ccccc1)C(=O)N[C@@H](Cc1c[nH]c2ccccc12)C(=O)N[C@@H](CCCNC(=N)N)C(N)=O [Lp-F^Myr, Myr-RFWR-NH2] (Myristoyl-RFWR-NH2) | 26.654 | 6.25 µg/mL (≈ 7.16 µM) | – | 50 (≈ 57.3 µM) | –
CCCCCCCCCCCC(=O)N[C@@H](CCCNC(=N)N)C(=O)N[C@@H](CS)C(=O)N[C@@H](Cc1c[nH]c2ccccc12)C(=O)N[C@@H](CCCNC(=N)N)C(N)=O [Lp-C, Lau-RCWR-NH2] (Lauroyl-RCWR-NH2) | 22.492 | 50 µg/mL (≈ 62.4 µM) | 200 µg/mL (≈ 250 µM) | 200 (≈ 250 µM) | –
CCCCCCCCCCCC(=O)N[C@@H](CCCNC(=N)N)C(=O)N[C@@H](Cc1c[nH]cn1)C(=O)N[C@@H](Cc1c[nH]c2ccccc12)C(=O)N[C@@H](CCCNC(=N)N)C(N)=O [Lp-H, Lau-RHWR-NH2] (Lauroyl-RHWR-NH2) | 21.476 | 6.25 µg/mL (≈ 7.48 µM) | 25 µg/mL (≈ 29.9 µM) | 100 (≈ 120 µM) | –
Lau-RFWR-NH2 [Lp-F^Lau] | 23.592 | – | – | – | –
CCCCCCCCCC(=O)N[C@@H](CCCNC(=N)N)C(=O)N[C@@H](Cc1ccccc1)C(=O)N[C@@H](Cc1c[nH]c2ccccc12)C(=O)N[C@@H](CCCNC(=N)N)C(N)=O [Lp-F^Dec, Dec-RFWR-NH2] (Decanoyl-RFWR-NH2) | 22.639 | – | 25 µg/mL (≈ 30.6 µM) | 50 (≈ 61.2 µM) | –
CCCCCCCC(=O)N[C@@H](CCCNC(=N)N)C(=O)N[C@@H](Cc1ccccc1)C(=O)N[C@@H](Cc1c[nH]c2ccccc12)C(=O)N[C@@H](CCCNC(=N)N)C(N)=O [Lp-F^Oct, Oct-RFWR-NH2] (Octanoyl-RFWR-NH2) | 17.974 | 100 µg/mL (≈ 127 µM) | – | 100 (≈ 127 µM) | –
CCCCCCCCCCCC(=O)N[C@@H](CCCNC(=N)N)C(=O)N[C@@H](CC(C)C)C(=O)N[C@@H](Cc1c[nH]c2ccccc12)C(=O)N[C@@H](CCCNC(=N)N)C(N)=O [Lp-L, Lau-RLWR-NH2] (Lauroyl-RLWR-NH2) | 23.079 | – | 25 µg/mL (≈ 30.8 µM) | 25 (≈ 30.8 µM) | –
CCCCCCCCCCCC(=O)N[C@@H](CCCNC(=N)N)C(=O)N[C@@H](C)C(=O)N[C@@H](Cc1c[nH]c2ccccc12)C(=O)N[C@@H](CCCNC(=N)N)C(N)=O [Lp-A, Lau-RAWR-NH2] (Lauroyl-RAWR-NH2) | 18.931 | 6.25 µg/mL (≈ 8.13 µM) | – | 25 (≈ 32.5 µM) | –
CCCCCCCCCCCC(=O)N[C@@H](CCCNC(=N)N)C(=O)N[C@@H](CCCNC(=N)N)C(=O)N[C@@H](Cc1c[nH]c2ccccc12)C(=O)N[C@@H](CCCNC(=N)N)C(N)=O [Lp-R, Lau-RRWR-NH2] (Lauroyl-RRWR-NH2) | 21.651 | 3.125 µg/mL (≈ 3.66 µM) | 12.5 µg/mL (≈ 14.6 µM) | 25 (≈ 29.3 µM) | MIC [2]: 100 µg/mL (≈ 117 µM); MIC (K. pneumoniae ATCC 13883): >100 µg/mL; MIC [3]: 12.5 µg/mL (≈ 14.6 µM); MIC (E. faecalis ATCC 29212): 6.25 µg/mL (≈ 7.32 µM); MIC (C. albicans ATCC 90029): 1.56 µg/mL (≈ 1.83 µM); MIC (C. albicans SC 5314): 50 µg/mL (≈ 58.5 µM); MIC [4]: 100 µg/mL (≈ 117 µM); MIC [5]: 3.125 µg/mL (≈ 3.66 µM); MIC [6]: 3.125 µg/mL (≈ 3.66 µM); MIC [7]: 3.125 µg/mL (≈ 3.66 µM); MIC (E. coli O18K1H7): 25 µg/mL (≈ 29.3 µM); MIC (B. subtilis DSM 4181): 1.56 µg/mL (≈ 1.83 µM); MIC [8]: 12.5 µg/mL (≈ 14.6 µM); MIC (B. cenocepacia J2315): 50 µg/mL (≈ 58.5 µM)
CCCCCCCCCCCC(=O)N[C@@H](CCCNC(=N)N)C(=O)N[C@H](C(=O)N[C@@H](Cc1c[nH]c2ccccc12)C(=O)N[C@@H](CCCNC(=N)N)C(N)=O)C(C)C [Lp-V, Lau-RVWR-NH2] (Lauroyl-RVWR-NH2) | 19.317 | 6.25 (6.25) μg/mL | 12.5 (12.5) μg/mL | – | –
CCCCCCCCCCCC(=O)N[C@@H](CCCNC(=N)N)C(=O)NCC(=O)N[C@@H](Cc1c[nH]c2ccccc12)C(=O)N[C@@H](CCCNC(=N)N)C(N)=O [Lp-G, Lau-RGWR-NH2] (Lauroyl-RGWR-NH2) | 18.415 | 6.25 µg/mL (≈ 8.28 µM) | 25 µg/mL (≈ 33.1 µM) | 50 (≈ 66.2 µM) | –
